PMC4824854, “Predictions of Cleavability of Calpain Proteolysis by Quantitative Structure-Activity Relationship Analysis Using Newly Determined Cleavage Sites and Catalytic Efficiencies of an Oligopeptide Array” (Molecular & Cellular Proteomics : MCP, 2016)
“Also recorded” adds a separate entry of the source.

T1: C1 (Merck Millipore #208712) (Sus scrofa, UniProt P35750)
T1 construct: purchased Merck Millipore 208712
T1 sequence (P35750 1-714): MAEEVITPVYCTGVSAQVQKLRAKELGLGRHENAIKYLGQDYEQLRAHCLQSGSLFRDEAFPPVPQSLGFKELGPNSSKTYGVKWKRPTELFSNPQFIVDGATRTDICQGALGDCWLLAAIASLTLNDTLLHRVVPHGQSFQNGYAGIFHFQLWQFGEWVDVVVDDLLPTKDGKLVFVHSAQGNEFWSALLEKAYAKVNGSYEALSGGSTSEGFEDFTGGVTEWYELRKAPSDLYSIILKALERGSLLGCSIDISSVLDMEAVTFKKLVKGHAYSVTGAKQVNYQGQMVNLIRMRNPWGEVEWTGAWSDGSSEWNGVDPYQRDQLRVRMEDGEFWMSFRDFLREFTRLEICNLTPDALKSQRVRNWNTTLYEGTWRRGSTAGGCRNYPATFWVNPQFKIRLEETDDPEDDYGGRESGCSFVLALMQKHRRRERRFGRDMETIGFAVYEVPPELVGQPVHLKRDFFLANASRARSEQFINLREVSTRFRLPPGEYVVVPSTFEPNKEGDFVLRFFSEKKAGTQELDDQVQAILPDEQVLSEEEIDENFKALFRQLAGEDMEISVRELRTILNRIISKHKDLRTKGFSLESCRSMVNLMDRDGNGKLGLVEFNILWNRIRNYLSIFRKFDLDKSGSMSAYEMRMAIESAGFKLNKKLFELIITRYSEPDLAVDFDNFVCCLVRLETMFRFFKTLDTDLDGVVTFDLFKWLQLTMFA
T1 sequence (P04574 1-266 partner): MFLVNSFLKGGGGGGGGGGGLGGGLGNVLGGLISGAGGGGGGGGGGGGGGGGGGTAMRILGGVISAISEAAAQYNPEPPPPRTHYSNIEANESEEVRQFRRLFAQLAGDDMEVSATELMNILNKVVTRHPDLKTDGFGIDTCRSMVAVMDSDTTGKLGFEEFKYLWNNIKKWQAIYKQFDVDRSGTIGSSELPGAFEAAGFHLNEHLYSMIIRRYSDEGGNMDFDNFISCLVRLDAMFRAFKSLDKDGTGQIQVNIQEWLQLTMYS

B1: horse myoglobin: horse myoglobin (Sigma-Aldrich, M0630; P68082) (protein, UniProt P68082 2-154, looked up)
Myoglobin: GLSDGEWQQVLNVWGKVEADIAGHGQEVLIRLFTGHPETLEKFDKFKHLKTEAEMKASEDLKKHGTVVLTALGGILKKKGHHEAELKPLAQSHATKHKIPIKYLEFISDAIIHVLHSKHPGDFGADAQGAMTKALELFRNDIAAKYKELGFQG

Key:
calpains = settings: cited from earlier work
Excerpt: This activity is mainly achieved by an ∼10^4-fold increase in the kcat without a significant change in the Km ([39]), by an unknown mechanism. Although this amidase-like calpain activity may be involved in as-yet-unknown physiological functions, there has been no further report on it.

[1] = target: T1, C1 (Merck Millipore #208712); test: Cleavage sites in whole proteins by N-terminal sequencing and MS/MS; assay type: biochemical; settings: C1 0.9 pmol, 100 mM Tris-HCl pH 7.5, 5 mM CaCl2, 30 °C, 20 min; peptide sequencing and LC-MS/MS
Experimental: Human heart troponin T2 (Merck 648484–100UGA, ca. 30 pmol) and horse myoglobin (Sigma-Aldrich, M0630, ca. 60 pmol) were digested with C1 (Merck Millipore #208712, 0.9 pmol) in 50 μl of 100 mM Tris-HCl (pH 7.5), 1 mM DTT, and 5 mM CaCl2 at 30 °C for 20 min. The digested samples were directly separated by SDS-PAGE, and the proteolyzed fragments were then blotted onto a PVDF membrane and subjected to peptide sequencing analysis (AproScience Inc., Tokushima, Japan). For sequence analysis by MS, the same digestion reactions were performed, terminated by adding a 3-fold volume of 7% TCA followed by incubation on ice for 30 min, spun (20,000 × g, 2 °C, 10 min), and the supernatant was collected. An aliquot of the soluble fraction was desalted and concentrated to a few μl using Zip-Tip C-18, and analyzed by Sciex 5600^+ with the Eksigent nanoLC system. The samples were analyzed in triplicate, the data were merged, and the peptide sequences were identified using ProteinPilot (Ver. 4.5) and Swiss-Prot DB (2015_08; 549,008 sequences; 195,692,017 aars) using the default parameters.

| Molecule | kcat/Km for hydrolysis of the NH2 group at the C terminus (amidase-like activity) (calpains) | calpain cleavage sites detected in the whole protein [1] |
| --- | --- | --- |
| RPKPQQFFGLM-NH2 [substance P] | 10^6 M^−1s^−1 |  |
| B1 |  | Lys^51/Thr^52; also recorded: Gly^152/Phe^153 |
